# Test results published in ChEMBL document CHEMBL3774317, “Design and synthesis of novel tamoxifen analogues that avoid CYP2D6 metabolism” (Eur J Med Chem, 2016).
# Key:
# Assay type in all cases: functional
# [1] = Cytotoxicity against human Caki1 cells assessed as cell growth at 10^-6 M after 48 hrs by SRB assay; conditions: CAKI-1, 48 h, read-out: Activity
# [2] = Cytotoxicity against human OVCAR5 cells assessed as cell growth at 10^-6 M after 48 hrs by SRB assay; conditions: OVCAR-5, 48 h, read-out: Activity
# [3] = tested on: KM12; test: Cytotoxicity against human KM12 cells assessed as cell growth at 10^-8 M after 48 hrs by SRB assay; conditions: KM12, 48 h, read-out: Activity
# [4] = Cytotoxicity against human LOXIMVI cells assessed as cell growth at 10^-4 M after 48 hrs by SRB assay; conditions: LOX IMVI, read-out: Activity
# [5] = Cytotoxicity against human SNB75 cells assessed as cell growth at 10^-5 M after 48 hrs by SRB assay; conditions: SNB-75, 48 h, read-out: Activity
# [6] = tested on: NCI-H522; test: Cytotoxicity against human NCI-H522 cells assessed as cell growth at 10^-8 M after 48 hrs by SRB assay; conditions: NCI-H522, 48 h, read-out: Activity
# [7] = Cytotoxicity against human SW620 cells assessed as cell growth at 10^-8 M after 48 hrs by SRB assay; conditions: SW-620, 48 h, read-out: Activity
# [8] = tested on: KM12; test: Cytotoxicity against human KM12 cells assessed as cell growth at 10^-6 M after 48 hrs by SRB assay; conditions: KM12, 48 h, read-out: Activity
# [9] = Cytotoxicity against human BT549 cells assessed as cell growth at 10^-4 M after 48 hrs by SRB assay; conditions: BT-549, 48 h, read-out: Activity
# [10] = Cytotoxicity against human SF539 cells assessed as cell growth at 10^-8 M after 48 hrs by SRB assay; conditions: SF-539, 48 h, read-out: Activity
# [11] = Cytotoxicity against human OVCAR3 cells assessed as cell growth at 10^-5 M after 48 hrs by SRB assay; conditions: OVCAR-3, 48 h, read-out: Activity
# [12] = Cytotoxicity against human DU145 cells assessed as cell growth at 10^-8 M after 48 hrs by SRB assay; conditions: DU-145, 48 h, read-out: Activity
# [13] = Cytotoxicity against human LOXIMVI cells assessed as cell growth at 10^-6 M after 48 hrs by SRB assay; conditions: LOX IMVI, read-out: Activity
# [14] = Cytotoxicity against human BT549 cells assessed as cell growth at 10^-7 M after 48 hrs by SRB assay; conditions: BT-549, 48 h, read-out: Activity
# [15] = Cytotoxicity against human SKOV3 cells assessed as cell growth at 10^-7 M after 48 hrs by SRB assay; conditions: SK-OV-3, 48 h, read-out: Activity
# [16] = Cytotoxicity against human HCT116 cells assessed as cell growth at 10^-8 M after 48 hrs by SRB assay; conditions: HCT-116, 48 h, read-out: Activity
# [17] = Cytotoxicity against human SNB19 cells assessed as cell growth at 10^-8 M after 48 hrs by SRB assay; conditions: SNB-19, 48 h, read-out: Activity
# [18] = tested on: SK-MEL-2; test: Cytotoxicity against human SK-MEL-2 cells assessed as cell growth at 10^-5 M after 48 hrs by SRB assay; conditions: SK-MEL-2, 48 h, read-out: Activity
# [19] = tested on: NCI-H522; test: Cytotoxicity against human NCI-H522 cells assessed as cell growth at 10^-7 M after 48 hrs by SRB assay; conditions: NCI-H522, 48 h, read-out: Activity
# [20] = tested on: T47D; test: Cytotoxicity against human T47D cells assessed as cell growth at 10^-6 M after 48 hrs by SRB assay; conditions: read-out: Activity
# [21] = tested on: MDA-MB-468; test: Cytotoxicity against human MDA-MB-468 cells assessed as cell growth at 10^-8 M after 48 hrs by SRB assay; conditions: MDA-MB-468, 48 h, read-out: Activity
# [22] = tested on: Malme-3M; test: Cytotoxicity against human MALME-3M cells assessed as cell growth at 10^-4 M after 48 hrs by SRB assay; conditions: read-out: Activity
# [23] = tested on: SK-MEL-5; test: Cytotoxicity against human SK-MEL-5 cells assessed as cell growth at 5 nM after 48 hrs by SRB assay; conditions: SK-MEL-5, 48 h, read-out: Activity
# [24] = Cytotoxicity against human RXF393 cells assessed as cell growth at 50 uM after 48 hrs by SRB assay; conditions: RXF 393, 48 h, read-out: Activity
# [25] = Cytotoxicity against human SF295 cells assessed as cell growth at 50 uM after 48 hrs by SRB assay; conditions: SF-295, 48 h, read-out: Activity
# [26] = tested on: NCI-H460; test: Cytotoxicity against human NCI-H460 cells assessed as cell growth at 0.5 uM after 48 hrs by SRB assay; conditions: NCI-H460, 48 h, read-out: Activity
# [27] = Cytotoxicity against human PC3 cells assessed as cell growth at 5 uM after 48 hrs by SRB assay; conditions: PC-3, 48 h, read-out: Activity
# [28] = Cytotoxicity against human HCT116 cells assessed as cell growth at 50 nM after 48 hrs by SRB assay; conditions: HCT-116, 48 h, read-out: Activity
# [29] = Cytotoxicity against human UACC62 cells assessed as cell growth at 50 uM after 48 hrs by SRB assay; conditions: UACC-62, 48 h, read-out: Activity
# [30] = Cytotoxicity against human OVCAR4 cells assessed as cell growth at 50 nM after 48 hrs by SRB assay; conditions: OVCAR-4, 48 h, read-out: Activity
# [31] = tested on: MDA-MB-435; test: Cytotoxicity against human MDA-MB-435 cells assessed as cell growth at 0.5 uM after 48 hrs by SRB assay; conditions: MDA-MB-435, 48 h, read-out: Activity
# [32] = Cytotoxicity against human SF295 cells assessed as cell growth at 5 nM after 48 hrs by SRB assay; conditions: SF-295, 48 h, read-out: Activity
# [33] = Cytotoxicity against human Caki1 cells assessed as cell growth at 50 uM after 48 hrs by SRB assay; conditions: CAKI-1, 48 h, read-out: Activity
# [34] = Cytotoxicity against human BT549 cells assessed as cell growth at 0.5 uM after 48 hrs by SRB assay; conditions: BT-549, 48 h, read-out: Activity
# [35] = tested on: MCF7; test: Cytotoxicity against human MCF7 cells assessed as cell growth at 5 uM after 48 hrs by SRB assay; conditions: MCF7, 48 h, read-out: Activity
# [36] = Cytotoxicity against human HOP62 cells assessed as cell growth at 50 nM after 48 hrs by SRB assay; conditions: HOP-62, 48 h, read-out: Activity
# [37] = Cytotoxicity against human HOP92 cells assessed as cell growth at 50 uM after 48 hrs by SRB assay; conditions: HOP-92, 48 h, read-out: Activity
# [38] = Cytotoxicity against human SNB75 cells assessed as cell growth at 5 nM after 48 hrs by SRB assay; conditions: SNB-75, 48 h, read-out: Activity
# [39] = tested on: MDA-MB-468; test: Cytotoxicity against human MDA-MB-468 cells assessed as cell growth at 5 nM after 48 hrs by SRB assay; conditions: MDA-MB-468, 48 h, read-out: Activity
# [40] = tested on: MDA-MB-468; test: Cytotoxicity against human MDA-MB-468 cells assessed as cell growth at 50 uM after 48 hrs by SRB assay; conditions: MDA-MB-468, 48 h, read-out: Activity
# [41] = tested on: SK-MEL-5; test: Cytotoxicity against human SK-MEL-5 cells assessed as cell growth at 0.5 uM after 48 hrs by SRB assay; conditions: SK-MEL-5, 48 h, read-out: Activity
smiles,measurement,setting,value
C/C(=C(/c1ccc(O)cc1)c1ccc(OCCN2CCCC2)cc1)c1ccccc1,growth at 1 µM,[1],81%
same,growth at 1 µM,[2],85%
same,growth at 0.01 µM,[3],102%
same,growth at 100 µM,[4],-93%
same,growth at 10 µM,[5],23%
same,growth at 0.01 µM,[6],88%
same,growth at 0.01 µM,[7],102%
same,growth at 1 µM,[8],95%
same,growth at 100 µM,[9],-100%
same,growth at 0.01 µM,[10],89%
same,growth at 10 µM,[11],35%
same,growth at 0.01 µM,[12],98%
same,growth at 1 µM,[13],92%
same,growth at 0.1 µM,[14],100%
same,growth at 0.1 µM,[15],93%
same,growth at 0.01 µM,[16],97%
same,growth at 0.01 µM,[17],104%
same,growth at 10 µM,[18],-67%
same,growth at 0.1 µM,[19],94%
same,growth at 1 µM,[20],48%
same,growth at 0.01 µM,[21],99%
same,growth at 100 µM,[22],-91%
CCCCCCCCCC(=O)Oc1ccc(/C(=C(/C)c2ccccc2)c2ccc(OCCN3CCCC3)cc2)cc1,growth at 0.005 µM,[23],100%
same,growth at 50 µM,[24],-89%
same,growth at 50 µM,[25],-94%
same,growth at 0.5 µM,[26],78%
same,growth at 5 µM,[27],89%
same,growth at 0.05 µM,[28],95%
same,growth at 50 µM,[29],-90%
same,growth at 0.05 µM,[30],92%
same,growth at 0.5 µM,[31],67%
same,growth at 0.005 µM,[32],94%
same,growth at 50 µM,[33],-89%
same,growth at 0.5 µM,[34],83%
same,growth at 5 µM,[35],36%
same,growth at 0.05 µM,[36],95%
same,growth at 50 µM,[37],-75%
same,growth at 0.005 µM,[38],88%
same,growth at 0.005 µM,[39],96%
same,growth at 50 µM,[40],-87%
same,growth at 0.5 µM,[41],62%
